Tests used:
[1] = compound II administrated alone in the clinical trial; cited from earlier work
[2] = system: IL2; assay: Effect of sorafenib on cytokine secretion of CAR T cells (Cytometric Bead Array); assay type: cell-based, human; details: general statement of the applicant's finding
Procedure: As for the specific steps, referring to the steps in the manual of The Cytometric Bead Array System (BD, USA), which are briefly described as follows:
b) The microspheres (cytometric bead array system, BD, USA) capturing the human cytokine IL2, IFN-γ, and TNF-α are taken to mix in a suspension.
c) The mixture of the microspheres for capturing and detection antibody are added into the standard or supernatant sample, incubating at room temperature in the dark; after the incubation is completed, it is washed with washing buffer, then centrifuging, and discarding the supernatant.
The secretion levels of IL-2, IFN-γ and TNF-α are detected by flow cytometry, and the results are shown in FIGS. 8A, 8B, and 8C, wherein ns means p>0.05; *p<0.05; **p<0.01; ***p<0.001, one-way ANOVA.

CNC(=O)c1cc(Oc2ccc(NC(=O)Nc3ccc(Cl)c(C(F)(F)F)c3)cc2)ccn1 [sorafenib]
approximate concentration in the patient's body [1]: ~6.5 µM | secretion of the cytokine IL2 by CAR T cells [2]: promote CAR T cells to secrete the cytokine IL2

Reference: US12178786B2, “Combination of cellular immunotherapy” (CRAGE medical Co., Limited, priority 2018, dated 2024)
